Experimental data from patent EP1149072B1, “SULFONAMIDE HYDROXAMATES” (F. HOFFMANN-LA ROCHE AG, priority 1998, dated 2000).

What was measured:
Format in all cases: biochemical
[1] = target: T1, Procollagen C-Proteinase (PCP) (Homo sapiens, UniProt P13497); test: Inhibition of Procollagen C-Proteinase activity, Assay A (continuous fluorescence assay, synthetic peptide substrate); conditions: Assay A from Ex. 21; 20 µM substrate, pH 7.5, 30°C
T1 construct: made in house; enzyme purified from culture fluid
T1 sequence (P13497 121-730 isoform P13497-2 limits assumed): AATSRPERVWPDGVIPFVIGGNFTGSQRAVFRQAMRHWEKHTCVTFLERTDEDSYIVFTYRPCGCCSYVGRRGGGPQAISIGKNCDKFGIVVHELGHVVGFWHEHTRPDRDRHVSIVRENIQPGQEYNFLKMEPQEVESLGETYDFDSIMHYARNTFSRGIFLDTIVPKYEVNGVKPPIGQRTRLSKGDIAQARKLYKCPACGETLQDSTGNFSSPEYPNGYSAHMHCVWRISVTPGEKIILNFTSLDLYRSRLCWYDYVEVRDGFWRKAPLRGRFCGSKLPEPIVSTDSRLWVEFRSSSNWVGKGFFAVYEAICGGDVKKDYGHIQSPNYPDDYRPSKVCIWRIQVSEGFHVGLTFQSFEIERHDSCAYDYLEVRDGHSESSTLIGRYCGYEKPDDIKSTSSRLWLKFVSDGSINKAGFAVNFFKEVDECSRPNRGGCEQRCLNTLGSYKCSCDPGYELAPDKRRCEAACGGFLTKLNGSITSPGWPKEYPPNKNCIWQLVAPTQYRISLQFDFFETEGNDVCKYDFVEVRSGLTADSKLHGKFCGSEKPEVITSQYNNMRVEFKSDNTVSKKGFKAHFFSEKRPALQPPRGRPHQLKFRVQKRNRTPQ
Experimental: Human Procollagen C-Proteinase (PCP, also known as Bone Morphogenetic Protein-1 or BMP-1) was cloned from a human fibroblast cDNA library (Stratagene, San Diego, CA). Cloning was performed by PCR based on the reported nucleotide sequence (Wozney, J.M., Rosen,V., Celeste, A.J., Mitsock, L.M., Whitters, M.J., Kriz, R.W., Hewick, R.M., and Wang, E.A. (1989) direct GenBank submission accession M22488, locus HUMBMP1) using Taq polymerase, the 5' primer […] […] […] (SEQ ID NO:1) (Oligo Therapeutics, Inc., Wilsonville, OR), and the 3' reverse strand primer […] TTGAGCTGGTG (SEQ ID NO:2) (Gibco) to yield the entire full-length nucleotide encoding the signal sequence, propeptide, catalytic domain, and all C-terminal domains to the natural translation termination site. The PCR product was purified by gel electrophoresis using the Wizard DNA Purification Kit (Promega, Madison, WI) and ligated directly into the mammalian expression vector pCR3.1 (Invitrogen, Carlsbad, CA) by the TA cloning method. Ligated product was used to transform E coli strain TOP10F' (Invitrogen, Carlsbad, CA) by a standard heat-shock method, and transformants were selected by restriction analysis of purified plasmid using the enzymes HindIII and BamHI. Transformants testing positive for the PCP insert were submitted for sequencing using the Perkin-Elmer / ABI system. Two clones were selected that, when combined, encoded the entire amino acid sequence identical to the one predicted by Wozney et al. The two clones were recombined by restriction using the enzymes BbrI, which cleaved at a naturally occurring internal site, and EcoRV, which cleaved at the junction of the insert and vector. The excised fragments were religated into EcoRV-treated pCR3.1. The resulting construct contained the entire coding sequence identical to that reported by Wozney et al. with the exception of two silent mutations in the signal sequence, G->A at both positions 39 and 45 counting from the translation initiation site (ATG). The completed plasmid construct was amplified in E. coli DH5a and purified using anion exchange chromatography (MaxiPrep columns from Qiagen (Valencia, CA) catalog #12162).
A column packed with Dyematrex Gel Green A (Millipore, Bedford, MA) was equilibrated against 50 mM HEPES, pH7.2, containing 6mM CaCl2 and 0.3M NaCl. After the HT1080 cell culture fluid was loaded, the column was washed with 10 column volumes of the equilibration buffer containing 1.0 M NaCl. PCP was eluted with 50 mM HEPES pH 7.2 containing 3 M NaCl, 2 M urea and 6 mM CaCl2. Eluate fractions were pooled and concentrated to 150-200 ml and dialyzed against 4.0 liters of 50 mM HEPES, 6 mM CaCl2, pH 7.2 overnight. The material was then centrifuged at 5,000 g for 15 minutes to remove precipitates. The PCP containing sample were stored at -20 °C until ready for further processing. The PCP containing sample was thawed and diluted with 50 mM HEPES pH 7.2 containing 6 mM CaCl2, if necessary to bring the NaCl concentration to 0.1-0.15 M. The pH was adjusted to 6.7 with 2 N HCl. The protein solution was filtered through a 0.45 µm filter to remove any precipitate. This preparation was then loaded onto a column packed with Q-Sepharose High Performance (Pharmacia, Piscataway, NJ) which had been equilibrated with 50mM HEPES pH 6.7 containing 6 mM CaCl2 and 0.15 M NaCl. The PCP was not retained in the column and was therefore in the flow through fractions. The PCP was concentrated to 1 mg/ml and used for screening.
Culture fluid from the drosophila cells was concentrated 8 fold and the pH adjusted to 7.1-7.2 if necessary. The culture fluid was centrifuged at 3000 g for 10 minutes and filtered through 0.45 µm filters. The culture fluid was then loaded onto columns packed with carboxy-sulfone packing material (J.T. Baker/Mallinckrodt, Phillipsburg, NJ) which had been equilibrated with 0.1 M NaCl, 50 mM HEPES, 6 mM CaCl2, pH 7.2. […]

collagenase-1 = target: T2, collagenase-1 (Homo sapiens, UniProt P03956); test: Measurement of collagenase activity (hydrolysis of fluorogenic peptide MCA-Pro-Leu-Gly-Leu-DPA-Ala-Arg-NH2); conditions: based on inhibitory data from Assay A of Ex. 21 and the Assay of Ex. 22
T2 construct: the collagenase-1 catalytic domain was released by treatment with 1mM of aminophenylmercuric acetate (APMA); ubiquitin (cleaved yes); made in house; host or cells: E. coli
T2 sequence (P03956 100-269 limits assumed): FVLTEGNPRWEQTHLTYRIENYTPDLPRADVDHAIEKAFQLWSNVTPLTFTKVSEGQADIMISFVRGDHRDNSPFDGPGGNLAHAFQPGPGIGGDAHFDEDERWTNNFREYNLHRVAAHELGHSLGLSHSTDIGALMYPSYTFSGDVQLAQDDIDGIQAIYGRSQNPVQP
Experimental: (§1) The catalytic domain of human collagenase-1 was expressed as a fusion protein with ubiquitin in E. Coli as described in Gehring, E.R. et al., J. Biol. Chem., 270, 22507, (1995). After purification of the fusion protein, the collagenase-1 catalytic domain was released by treatment with 1mM of aminophenylmercuric acetate (APMA) for 1 hour at 37 °C and then purified by zinc chelate chromatography. Human collagenase-2 and gelatinase B were isolated in active form from buffy coats as described in Mookhtiar, K.A. et al., Biochemistry, 29, 10620, (1990). The propeptide and catalytic domain portion of human collagenase-3 was expressed in E. Coli as an N-terminal fusion protein with ubiquitin. After purification, the catalytic domain was released by treatment with 1 mM APMA for 1 hour at 37 ° C, and then purified by zinc chelate chromatography. Rat collagenase-3 was purified in active form from the culture media of uterine smooth muscle cells as described in Roswit, W.T. et al., Arch. Biochem. Biophys., 225, 285-295 (1983).
(§2) The collagenase-1, collagenase-2 and collagenase-3 inhibitory activity of compounds of this invention in vitro was determined based on the hydrolysis of MCA-Pro-Leu-Gly-Leu-DPA-Ala-Arg-NH2 (SEQ ID NO:8) (Bachem, Inc.) at 37°C as described in Knight, C.G., et al., FEBS Lett., 296(3): 263-266 (1992). The collagenase enzyme was diluted with assay buffer (50 mM Tricine pH 7.5, 200 mM NaCl, 10 mM CaCl2, and 0.005% Brij-35) containing […] of above substrate dissolved in DMSO. Compounds of the invention dissolved in DMSO or only DMSO (control samples) were added such that the final DMSO concentration in all assays was 2.5%. The fluorescence changes were monitored with a Perkin-Elmer LS-50B flourimeter using an excitation wavelength of 328 nm and an emission wavelength of 393 nm.

collagenase-2 = target: T3, collagenase-2 (Homo sapiens, UniProt P22894); test: as above; conditions: based on inhibitory data from Assay A of Ex. 21 and the Assay of Ex. 22
T3 construct: Human collagenase-2 and gelatinase B were isolated in active form from buffy coats; from tissue; host or cells: human buffy coats (blood leukocytes)
T3 sequence (P22894 101-467): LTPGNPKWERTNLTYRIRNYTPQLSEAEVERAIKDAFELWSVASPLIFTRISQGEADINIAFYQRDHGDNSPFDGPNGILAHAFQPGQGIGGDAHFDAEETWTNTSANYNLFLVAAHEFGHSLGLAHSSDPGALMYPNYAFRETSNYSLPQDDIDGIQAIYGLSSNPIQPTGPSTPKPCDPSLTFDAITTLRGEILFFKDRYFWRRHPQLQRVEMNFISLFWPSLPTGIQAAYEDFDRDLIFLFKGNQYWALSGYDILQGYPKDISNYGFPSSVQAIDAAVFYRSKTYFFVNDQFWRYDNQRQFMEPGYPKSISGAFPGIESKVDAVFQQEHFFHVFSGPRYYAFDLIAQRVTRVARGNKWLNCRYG
Experimental: as §1, §2

collagenase-3 = target: T4, collagenase-3 (Homo sapiens, UniProt P45452); test: as above; conditions: based on inhibitory data from Assay A of Ex. 21 and the Assay of Ex. 22
T4 construct: After purification, the catalytic domain was released by treatment with 1 mM APMA for 1 hour; ubiquitin (N, cleaved yes); made in house; host or cells: E. coli
Experimental: as §1, §2

IC50 [1] [nM]	Selectivity for PCP/Col-1 (collagenase-1)	Selectivity for PCP/Col-2 (collagenase-2)	Selectivity for PCP/Col-3 (collagenase-3)	Compound
110	400.0	136.4		COc1cc(C)c(S(=O)(=O)N(Cc2ccc3[nH]ccc3c2)[C@@H](C(=O)NO)C(C)C)cc1C [Cmpd 145, N-hydroxy-2(R)-2-[(1H-indol-5-ylmethyl)-(4-methoxy-2,5-dimethylbenzenesulfonyl)-amino]-3-methylbutyramide]
40	1775.0	250.0	1950.0	COc1cc(C)c(S(=O)(=O)N(Cc2ccc3[nH]cnc3c2)[C@@H](C(=O)NO)C(C)C)c(C)c1C [Cmpd 82]
26				COc1cc(C)c(S(=O)(=O)N(Cc2ccc3[nH]cc(C(C)=O)c3c2)[C@@H](C(=O)NO)C(C)C)c(C)c1C [Cmpd 126, N-hydroxy-2(R)-[(1H-3-acetyl-indol-5-ylmethyl)-(4-methoxy-2,3,6-trimethylbenzenesulfonyl)amino]-3-methylbutyramide]

The remaining lines, values behind:

Compound	IC50 [1] [nM]	Selectivity for PCP/Col-1 (collagenase-1)	Selectivity for PCP/Col-2 (collagenase-2)	Selectivity for PCP/Col-3 (collagenase-3)
COc1cc(C)c(S(=O)(=O)N(Cc2ccc3[nH]ccc3c2)[C@H](COC(C)(C)C)C(=O)NO)c(C)c1C [Cmpd 15, N-Hydroxy-2(R)-[(4-methoxy-2,5,6-trimethylbenzenesulfonyl)-(1H-indol-5-ylmethyl)amino]-3-tert-butoxypropionamide]	66	515.1	454.5	
COc1cc(C)c(S(=O)(=O)N(Cc2ccc3c(c2)OCO3)[C@H](CO)C(=O)NO)c(C)c1C [Cmpd 5, N-hydroxy-2(R)-[(3,4-methylenedioxybenzyl)-(4-methoxy-2,3,6-trimethylbenzenesulfonyl)amino)-3-hydroxypropionamide]	73	520.5	123.3	
COc1cc(C)c(S(=O)(=O)N(Cc2ccc3c(c2)OCO3)[C@@H](C(=O)NO)C(C)C)c(C)c1 [Cmpd 40, N-hydroxy-2(R)-2-[(3,4-methylenedioxybenzyl)-(4-methoxy-2,6-dimethylbenzene-sulfanyl)amino]-3-methylbutyramide]	68	367.6	55.9	
COc1cc(C)c(S(=O)(=O)N(Cc2ccc3c(c2)OCO3)[C@H](CNS(C)(=O)=O)C(=O)NO)c(C)c1 [Cmpd 128, N-hydroxy-2(R)-[(3,4-methylendioxybenzyl)-(2,6-dimethyl-4-methoxybenzenesulfonyl)amino]-3-(methanesulfonyl)amino-propionamide]	30			
COc1cc(C)c(S(=O)(=O)N(Cc2ccc3c(c2)OCO3)[C@@H](C(=O)NO)C(C)C)c(C)c1C [Cmpd 12, N-hydroxy-2(R)-[(3,4-methylenedioxybenzyl)-(4-methoxy-2,3,6-trimethylbenzenesulfonyl)amino]-3-methylbutyramide]	69	89.9	23.2	14.5
